Reference: US9249163B2, “PDE10a inhibitors for the treatment of type II diabetes” (Janssen Pharmaceutica, NV, priority 2013, dated 2016)
Counter-ions that a name gives are not always drawn.

Experiments:
[1] = biological target: Rat recombinant PDE10a (rPDE10a) (Rattus norvegicus (Rat), UniProt Q9QYJ6); test: In vitro assay PDE10a (rat recombinant PDE10a, SPA); assay type: biochemical; details: 60 nM cAMP, 60 min at rt, read-out: rPDE10a2 IC50
Protocol: Rat recombinant PDE10a (rPDE10a) was expressed in Sf9 cells using a recombinant rPDE10a baculovirus construct. Cells were harvested after 48 h of infection and the rPDE10a protein was purified by metal chelate chromatography on Ni-sepharose 6FF. Tested compounds were dissolved and diluted in 100% DMSO to a concentration 100 fold of the final concentration in the assay. Compound dilutions (0.4 μL) were added in 384 well plates to 20 μL of incubation buffer (50 mM Tris pH 7.8, 8.3 mM MgCl2, 1.7 mM EGTA). 10 μL of rPDE10a enzyme in incubation buffer was added and the reaction was started by addition of 10 μL substrate to a final concentration of 60 nM cAMP and 0.008 μCi ^3H-cAMP. The reaction was incubated for 60 min at rt. After incubation, the reaction was stopped with 20 μL of 17.8 mg/mL PDE SPA beads. After sedimentation of the beads during 30 min the radioactivity was measured in a Perkin Elmer Topcount scintillation counter and results were expressed as cpm. For blank values the enzyme was omitted from the reaction and replaced by incubation buffer. Control values were obtained by addition of a final concentration of 1% DMSO instead of compound.

[2] = biological target: Human recombinant PDE10A2 (Homo sapiens (Human), UniProt Q9Y233); test: In vitro hPDE10a (human recombinant PDE10A2, scintillation proximity assay); assay type: biochemical; details: human recombinant PDE10A2, 60 nM cAMP, 60 min at room temperature; read-out: hPDE10a2 IC50
Chain of Human recombinant PDE10A2 (Q9Y233 267-1055): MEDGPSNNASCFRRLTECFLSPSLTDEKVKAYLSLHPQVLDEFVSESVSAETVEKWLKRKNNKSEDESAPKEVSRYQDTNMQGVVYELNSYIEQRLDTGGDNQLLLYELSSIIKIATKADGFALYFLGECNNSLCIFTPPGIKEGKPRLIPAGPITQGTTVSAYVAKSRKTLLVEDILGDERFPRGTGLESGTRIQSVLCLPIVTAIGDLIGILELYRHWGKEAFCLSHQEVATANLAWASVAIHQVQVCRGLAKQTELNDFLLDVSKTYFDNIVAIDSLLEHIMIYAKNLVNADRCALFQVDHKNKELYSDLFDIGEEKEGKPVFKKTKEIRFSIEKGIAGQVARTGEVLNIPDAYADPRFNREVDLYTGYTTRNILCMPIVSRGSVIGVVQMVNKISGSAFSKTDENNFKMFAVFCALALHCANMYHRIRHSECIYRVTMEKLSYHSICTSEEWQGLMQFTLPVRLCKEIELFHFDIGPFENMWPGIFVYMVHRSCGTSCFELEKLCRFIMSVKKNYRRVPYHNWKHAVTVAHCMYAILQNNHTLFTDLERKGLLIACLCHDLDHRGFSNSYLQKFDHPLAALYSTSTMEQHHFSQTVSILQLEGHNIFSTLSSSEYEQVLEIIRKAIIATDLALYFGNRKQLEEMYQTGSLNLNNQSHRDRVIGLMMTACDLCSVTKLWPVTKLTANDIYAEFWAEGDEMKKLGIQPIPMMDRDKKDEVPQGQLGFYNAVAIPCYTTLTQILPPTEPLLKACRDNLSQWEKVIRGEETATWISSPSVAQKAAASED
Protocol: Human recombinant PDE10A2 was expressed in Sf9 cells, using a recombinant baculovirus construct containing the full length sequence containing a 6×His sequence following the start Met to allow metal affinity purification of the recombinant protein. Cells were harvested and the phosphodiesterase protein was purified by metal chelate chromatography on Ni-sepharose 6FF.
The affinity of the compounds of Formula (I) for phophodiesterases (PDE) was measured by a scintillation proximity assay (SPA). PDE Yttrium Silicate SPA beads allow PDE activity to be measured by direct binding of the primary phosphate groups of non-cyclic AMP or GMP to the beads via a complex iron chelation mechanism. The amount of bound tritiated product ([^3H]-AMP) is measured by liquid scintillation counting.
The compounds were dissolved and diluted in 100% DMSO in polystyrene plates to a concentration of 100-fold the final concentration in the assay. Human PDE10A enzyme solution (10 μL) was added to 20 μL, of incubation buffer (50 mM Tris pH 7.8, 8.3 mM MgCl2, 1.7 mM EGTA), 10 μL, substrate solution consisting of a mixture of non-tritiated and tritiated substrate (60 nM cAMP, 0.008 μCi ^3H-cAMP), and 0.4 μL, compound in 100% DMSO in a 384-well plate, and incubated for 60 min at room temperature. After incubation, the reaction was stopped with 20 μL, of stop solution, consisting of PDE SPA beads (17.8 mg beads/mL in 18 mM zinc sulphate). After sedimentation of the beads for 30 min, the radioactivity was measured in a Perkin Elmer Topcount scintillation counter and results were expressed as cpm. To measure the low control, no enzyme was added to the reaction mixture.
Data were calculated as the percentage of inhibition of total activity measured in the absence of test compound (% control).

Chain of Rat recombinant PDE10a (rPDE10a) (Q9QYJ6 whole entry): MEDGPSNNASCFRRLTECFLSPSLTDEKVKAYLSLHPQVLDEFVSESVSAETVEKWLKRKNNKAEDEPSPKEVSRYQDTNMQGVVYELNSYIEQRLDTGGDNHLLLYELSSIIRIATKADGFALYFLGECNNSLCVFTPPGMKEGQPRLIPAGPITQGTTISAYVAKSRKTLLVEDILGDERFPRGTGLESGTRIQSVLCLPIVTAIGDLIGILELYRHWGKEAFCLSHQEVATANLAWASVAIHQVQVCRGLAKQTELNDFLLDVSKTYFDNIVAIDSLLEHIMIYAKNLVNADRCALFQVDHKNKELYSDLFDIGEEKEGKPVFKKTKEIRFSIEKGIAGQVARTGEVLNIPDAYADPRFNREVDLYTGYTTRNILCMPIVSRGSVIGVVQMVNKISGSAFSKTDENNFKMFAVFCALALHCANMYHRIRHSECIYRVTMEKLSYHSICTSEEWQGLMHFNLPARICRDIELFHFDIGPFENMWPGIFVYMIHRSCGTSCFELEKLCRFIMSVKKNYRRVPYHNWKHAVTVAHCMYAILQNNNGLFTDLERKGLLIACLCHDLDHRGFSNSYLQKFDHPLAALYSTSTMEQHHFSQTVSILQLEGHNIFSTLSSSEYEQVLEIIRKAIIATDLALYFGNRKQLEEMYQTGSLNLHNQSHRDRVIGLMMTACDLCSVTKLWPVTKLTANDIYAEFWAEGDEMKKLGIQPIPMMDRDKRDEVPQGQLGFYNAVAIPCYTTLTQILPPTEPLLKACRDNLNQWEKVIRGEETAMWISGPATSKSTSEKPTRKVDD

OC(c1ccc(-c2cnc(N3CCOCC3)c3nc(/C=C/c4ccc5ccccc5n4)cn23)cc1)(C(F)(F)F)C(F)(F)F [Cpd 2, (E)-1,1,1,3,3,3-hexafluoro-2-(4-(8-morpholino-2-(2-(quinolin-2-yl)vinyl)imidazo[1,2-a]pyrazin-5-yl)phenyl)propan-2-ol]
IC50 [1]: 20 nM | IC50 [2]: 30 nM

O=C(O)c1ccc(-c2cnc(N3CCOCC3)c3nc(/C=C/c4ccc5ccccc5n4)cn23)cc1F [Cpd 3, (E)-2-Fluoro-4-(8-morpholino-2-(2-(quinolin-2-yl)vinyl)imidazo[1,2-a]pyrazin-5-yl)benzoic acid hydrochloric acid salt]
IC50 [1]: 9 nM | IC50 [2]: 5 nM

O=C(O)c1ccc(-c2cnc(N3CCOCC3)c3nc(/C=C/c4ccc5ccccc5n4)cn23)nc1 [Cpd 6, (E)-6-(8-morpholino-2-(2-(quinolin-2-yl)vinyl)imidazo[1,2-a]pyrazin-5-yl)nicotinic acid hydrochloric acid salt]
IC50 [1]: 14 nM | IC50 [2]: 12 nM

COc1cccc(/C=C/c2cn3c(-c4ccc(C(=O)O)cc4)cnc(N4CCOCC4)c3n2)n1 [Cpd 7, (E)-4-(2-(2-(6-Methoxypyridin-2-yl)vinyl)-8-morpholinoimidazo[1,2-a]pyrazin-5-yl)benzoic acid]
IC50 [1]: 16 nM | IC50 [2]: 6 nM

O=C(O)Cn1cc(-c2cnc(N3CCOCC3)c3nc(C#Cc4ccc5ccccc5n4)cn23)cn1 [Cpd 9, 2-(4-(8-Morpholino-2-(quinolin-2-ylethynyl)imidazo[1,2-a]pyrazin-5-yl)-1H-pyrazol-1-yl)acetic acid]
IC50 [1]: 2 nM | IC50 [2]: 1 nM

O=C(O)c1ccc(-c2cnc(N3CCOCC3)c3nc(C#Cc4ccccn4)cn23)cc1 [Cpd 10, 4-(8-Morpholino-2-(pyridin-2-ylethynyl)imidazo[1,2-a]pyrazin-5-yl)benzoic acid]
IC50 [1]: 16 nM | IC50 [2]: 12 nM

O=C(O)c1ccc(-c2cnc(N3CCOCC3)c3nc(C#Cc4nc5ccccc5s4)cn23)cc1 [Cpd 11, 4-(2-(Benzo[d]thiazol-2-ylethynyl)-8-morpholinoimidazo[1,2-a]pyrazin-5-yl)benzoic acid]
IC50 [1]: 9 nM | IC50 [2]: 7 nM

CS(=O)(=O)NC(=O)c1ccc(-c2cnc(N3CCOCC3)c3nc(CSc4ccc5ccccc5n4)cn23)cc1 [Cpd 12, N-(Methylsulfonyl)-4-(8-morpholino-2-((quinolin-2-ylthio)methyl)imidazo[1,2-a]pyrazin-5-yl)benzamide]
IC50 [1]: 4 nM | IC50 [2]: 2 nM

CC(C)[C@H](Nc1ccc(-c2cnc(N3CCOCC3)c3nc(/C=C/c4ccc5ccccc5n4)cn23)cc1)C(=O)O [Cpd 15, (S,E)-3-Methyl-2-(4-(8-morpholino-2-(2-(quinolin-2-yl)vinyl)imidazo[1,2-a]pyrazin-5-yl)phenylamino)butanoic acid trifluoroacetic acid salt]
IC50 [1]: 51 nM | IC50 [2]: 30 nM

O=C(O)c1ccc(-c2cnc(N3CCOCC3)c3nc(CCc4ccc5ccccc5n4)cn23)cc1 [Cpd 17, 4-(8-Morpholino-2-(2-(quinolin-2-yl)ethyl)imidazo[1,2-a]pyrazin-5-yl)benzoic acid trifluoroacetic acid salt]
IC50 [1]: 3 nM | IC50 [2]: 3 nM

COCCOCCOc1ccc(-c2cnc(N3CCOCC3)c3nc(/C=C/c4ccc5ccccc5n4)cn23)cc1 [Cpd 18, (E)-4-(5-(4-(2-(2-Methoxyethoxy)ethoxy)phenyl)-2-(2-(quinolin-2-yl)vinyl)imidazo[1,2-a]pyrazin-8-yl)morpholine]
IC50 [1]: 102 nM | IC50 [2]: 83 nM

CN1C(=O)Nc2ccc(-c3cnc(N4CCOCC4)c4nc(/C=C/c5ccc6ccccc6n5)cn34)cc2S1(=O)=O [Cpd 19, (E)-2-Methyl-7-(8-morpholino-2-(2-(quinolin-2-yl)vinyl)imidazo[1,2-a]pyrazin-5-yl)-2H-benzo[e][1,2,4]thiadiazin-3(4H)-one 1,1-dioxide]
IC50 [1]: 15 nM | IC50 [2]: 18 nM

CN1C(=O)N(C)S(=O)(=O)c2cc(-c3cnc(N4CCOCC4)c4nc(/C=C/c5ccc6ccccc6n5)cn34)ccc21 [Cpd 20, (E)-2,4-Dimethyl-7-(8-morpholino-2-(2-(quinolin-2-yl)vinyl)imidazo[1,2-a]pyrazin-5-yl)-2H-benzo[e][1,2,4]thiadiazin-3(4H)-one 1,1-dioxide]
IC50 [1]: 26 nM | IC50 [2]: 8 nM

O=c1[nH]cnn1-c1ccc(-c2cnc(N3CCOCC3)c3nc(CCc4ccc5ccccc5n4)cn23)cc1 [Cpd 21, 1-(4-(8-Morpholino-2-(2-(quinolin-2-yl)ethyl)imidazo[1,2-a]pyrazin-5-yl)phenyl)-1H-1,2,4-triazol-5(4H)-one]
IC50 [1]: 31 nM | IC50 [2]: 25 nM

O=C(O)CCNc1ccc(-c2cnc(N3CCOCC3)c3nc(/C=C/c4ccc5ccccc5n4)cn23)cc1 [Cpd 22, (E)-3-(4-(8-Morpholino-2-(2-(quinolin-2-yl)vinyl)imidazo[1,2-a]pyrazin-5-yl)phenylamino)propanoic acid trifluoroacetic acid salt]
IC50 [1]: 9 nM | IC50 [2]: 9 nM

O=C(O)CCNc1ccc(-c2cnc(N3CCOCC3)c3nc(CCc4ccc5ccccc5n4)cn23)cc1 [Cpd 23, 3-(4-(8-Morpholino-2-(2-(quinolin-2-yl)ethyl)imidazo[1,2-a]pyrazin-5-yl)phenylamino)propanoic acid trifluoroacetic acid salt]
IC50 [1]: 6 nM | IC50 [2]: 8 nM

CN1C(=O)NS(=O)(=O)c2cc(-c3cnc(N4CCOCC4)c4nc(/C=C/c5ccc6ccccc6n5)cn34)ccc21 [Cpd 24, (E)-4-Methyl-7-(8-morpholino-2-(2-(quinolin-2-yl)vinyl)imidazo[1,2-a]pyrazin-5-yl)-2H-benzo[e][1,2,4]thiadiazin-3(4H)-one 1,1-dioxide trifluoroacetic acid salt]
IC50 [1]: 5 nM | IC50 [2]: 3 nM

CS(=O)(=O)NC(=O)c1cncc(-c2cnc(N3CCOCC3)c3nc(/C=C/c4ccc5ccccc5n4)cn23)c1 [Cpd 25, (E)-N-(Methylsulfonyl)-5-(8-morpholino-2-(2-(quinolin-2-yl)vinyl)imidazo[1,2-a]pyrazin-5-yl)nicotinamide]
IC50 [1]: 3 nM | IC50 [2]: 2 nM

O=C1NC(=O)C(c2ccc(-c3cnc(N4CCOCC4)c4nc(CCc5ccc6ccccc6n5)cn34)cc2)O1 (stereo not shown) [Cpd 26, 5-(4-(8-Morpholino-2-(2-(quinolin-2-yl)ethyl)imidazo[1,2-a]pyrazin-5-yl)phenyl)oxazolidine-2,4-dione trifluoroacetic acid salt]
IC50 [1]: 8 nM | IC50 [2]: 6 nM

O=C(O)c1cncc(-c2cnc(N3CCOCC3)c3nc(/C=C/c4ccc5ccccc5n4)cn23)c1 [Cpd 27, (E)-5-(8-Morpholino-2-(2-(quinolin-2-yl)vinyl)imidazo[1,2-a]pyrazin-5-yl)nicotinic acid]
IC50 [1]: 2 nM | IC50 [2]: 2 nM

O=C(O)CNc1ccc(-c2cnc(N3CCOCC3)c3nc(/C=C/c4ccc5ccccc5n4)cn23)cc1 [Cpd 29, (E)-2-(4-(8-Morpholino-2-(2-(quinolin-2-yl)vinyl)imidazo[1,2-a]pyrazin-5-yl)phenylamino)acetic acid trifluoroacetic acid salt]
IC50 [1]: 15 nM | IC50 [2]: 24 nM

COCCOCCOc1ccc(-c2cnc(N3CCOCC3)c3nc(CCc4ccc5ccccc5n4)cn23)cc1 [Cpd 31, 4-(5-(4-(2-(2-Methoxyethoxy)ethoxy)phenyl)-2-(2-(quinolin-2-yl)ethyl)imidazo[1,2-a]pyrazin-8-yl)morpholine]
IC50 [1]: 115 nM | IC50 [2]: 1 nM

CS(=O)(=O)NC(=O)c1ccc(-c2cnc(N3CCOCC3)c3nc(CCc4ccc5ccccc5n4)cn23)cc1 [Cpd 61, N-(Methylsulfonyl)-4-(8-morpholino-2-(2-(quinolin-2-yl)ethyl)imidazo[1,2-a]pyrazin-5-yl)benzamide hydrochloric acid salt]
IC50 [1]: 6 nM

CS(=O)(=O)NC(=O)c1ccc(-c2cnc(N3CCOCC3)c3nc(/C=C/c4ccc5ccccc5n4)cn23)cc1 [Cpd 62, (E)-N-(Methylsulfonyl)-4-(8-morpholino-2-(2-(quinolin-2-yl)vinyl)imidazo[1,2-a]pyrazin-5-yl)benzamide hydrochloric acid salt]
IC50 [1]: 16 nM
